{"source": "ChEMBL document CHEMBL5212743", "about": "“Selectivity Literature for EUbOPEN Chemogenomics Library wave 3” (2023)", "key": {"[1]": {"biological_target": "Serine/threonine-protein kinase Nek5 (Homo sapiens) (UniProt Q6P3R8)", "sequence (Q6P3R8 whole entry)": "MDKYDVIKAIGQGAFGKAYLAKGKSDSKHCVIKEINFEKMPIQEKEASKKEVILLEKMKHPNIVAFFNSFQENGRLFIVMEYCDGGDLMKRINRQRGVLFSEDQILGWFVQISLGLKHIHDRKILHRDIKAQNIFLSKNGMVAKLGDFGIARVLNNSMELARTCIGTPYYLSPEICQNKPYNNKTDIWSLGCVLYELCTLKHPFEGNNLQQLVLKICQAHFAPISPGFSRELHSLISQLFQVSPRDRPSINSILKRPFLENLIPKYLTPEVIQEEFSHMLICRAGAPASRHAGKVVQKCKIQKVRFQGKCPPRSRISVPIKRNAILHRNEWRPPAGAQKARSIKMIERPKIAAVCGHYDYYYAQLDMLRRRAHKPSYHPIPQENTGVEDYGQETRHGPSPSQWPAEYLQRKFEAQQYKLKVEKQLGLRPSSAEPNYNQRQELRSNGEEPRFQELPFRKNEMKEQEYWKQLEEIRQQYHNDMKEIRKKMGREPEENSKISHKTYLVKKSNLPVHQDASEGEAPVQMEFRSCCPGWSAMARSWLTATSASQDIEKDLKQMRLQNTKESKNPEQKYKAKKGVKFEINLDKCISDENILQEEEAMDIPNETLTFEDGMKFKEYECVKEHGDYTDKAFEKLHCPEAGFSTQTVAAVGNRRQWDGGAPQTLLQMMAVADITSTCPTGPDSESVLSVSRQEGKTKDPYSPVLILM", "test": "Selectivity interaction (KinomeScan (DiscoverX)) EUB0000339a NEK5", "settings": "at 1 µM"}, "[2]": {"biological_target": "T1, Myosin-IIIb (Homo sapiens) (UniProt Q8WXR4)", "T1 sequence (whole entry)": "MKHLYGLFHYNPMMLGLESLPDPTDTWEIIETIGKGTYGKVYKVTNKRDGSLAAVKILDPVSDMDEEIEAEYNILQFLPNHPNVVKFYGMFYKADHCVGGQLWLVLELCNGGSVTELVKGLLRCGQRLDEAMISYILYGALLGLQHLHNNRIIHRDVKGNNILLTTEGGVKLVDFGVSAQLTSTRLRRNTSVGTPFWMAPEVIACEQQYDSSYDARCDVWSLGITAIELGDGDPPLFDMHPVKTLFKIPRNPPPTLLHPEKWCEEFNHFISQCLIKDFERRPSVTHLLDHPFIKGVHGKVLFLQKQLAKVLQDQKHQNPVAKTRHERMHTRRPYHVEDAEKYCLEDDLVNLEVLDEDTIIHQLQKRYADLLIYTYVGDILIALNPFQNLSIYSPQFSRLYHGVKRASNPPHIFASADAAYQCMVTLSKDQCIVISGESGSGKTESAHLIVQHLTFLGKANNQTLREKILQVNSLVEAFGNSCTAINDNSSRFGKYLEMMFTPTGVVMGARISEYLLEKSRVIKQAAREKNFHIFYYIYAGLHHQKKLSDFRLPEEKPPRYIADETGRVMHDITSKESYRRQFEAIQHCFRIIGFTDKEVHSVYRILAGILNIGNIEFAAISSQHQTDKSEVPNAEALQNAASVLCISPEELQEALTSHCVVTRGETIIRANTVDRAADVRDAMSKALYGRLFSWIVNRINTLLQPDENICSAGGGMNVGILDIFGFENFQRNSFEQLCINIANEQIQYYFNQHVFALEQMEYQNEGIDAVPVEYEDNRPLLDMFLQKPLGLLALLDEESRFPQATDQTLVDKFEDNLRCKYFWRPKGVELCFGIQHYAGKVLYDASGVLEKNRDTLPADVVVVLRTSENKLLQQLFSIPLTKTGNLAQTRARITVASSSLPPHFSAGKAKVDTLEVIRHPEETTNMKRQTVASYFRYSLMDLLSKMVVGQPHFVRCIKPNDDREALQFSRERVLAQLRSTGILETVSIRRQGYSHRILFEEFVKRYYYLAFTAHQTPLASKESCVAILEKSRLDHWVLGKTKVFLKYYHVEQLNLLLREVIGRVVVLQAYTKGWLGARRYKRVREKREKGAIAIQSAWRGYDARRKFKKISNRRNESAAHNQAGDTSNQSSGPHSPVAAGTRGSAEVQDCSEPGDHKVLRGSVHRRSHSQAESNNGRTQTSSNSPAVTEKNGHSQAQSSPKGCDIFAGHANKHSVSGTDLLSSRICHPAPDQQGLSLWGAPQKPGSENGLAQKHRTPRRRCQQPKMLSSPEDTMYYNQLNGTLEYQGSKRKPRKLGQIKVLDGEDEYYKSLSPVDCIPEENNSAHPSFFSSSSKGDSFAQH", "test": "Selectivity interaction (KinomeScan (DiscoverX)) EUB0000339a MYO3B", "settings": "at 1 µM"}, "[3]": {"biological_target": "Receptor-interacting serine/threonine-protein kinase 1 (Homo sapiens) (UniProt Q13546)", "test": "Selectivity interaction (KinomeScan (DiscoverX)) EUB0000339a RIPK1", "settings": "at 1 µM"}, "[4]": {"biological_target": "Mitogen-activated protein kinase 9 (Homo sapiens, UniProt P45984)", "test": "Selectivity interaction (KinomeScan (DiscoverX)) EUB0000634a MAPK9", "settings": "at 1 µM"}, "[5]": {"biological_target": "Mast/stem cell growth factor receptor Kit (Homo sapiens, UniProt P10721)", "test": "Selectivity interaction (KinomeScan (DiscoverX)) EUB0000634a KIT", "settings": "at 1 µM"}, "[6]": {"biological_target": "Platelet-derived growth factor receptor beta (Homo sapiens, UniProt P09619)", "test": "Selectivity interaction (KinomeScan (DiscoverX)) EUB0000634a PDGFRB", "settings": "at 1 µM"}, "[7]": {"biological_target": "Histamine H1 receptor (Homo sapiens, UniProt P35367)", "sequence (P35367 whole entry)": "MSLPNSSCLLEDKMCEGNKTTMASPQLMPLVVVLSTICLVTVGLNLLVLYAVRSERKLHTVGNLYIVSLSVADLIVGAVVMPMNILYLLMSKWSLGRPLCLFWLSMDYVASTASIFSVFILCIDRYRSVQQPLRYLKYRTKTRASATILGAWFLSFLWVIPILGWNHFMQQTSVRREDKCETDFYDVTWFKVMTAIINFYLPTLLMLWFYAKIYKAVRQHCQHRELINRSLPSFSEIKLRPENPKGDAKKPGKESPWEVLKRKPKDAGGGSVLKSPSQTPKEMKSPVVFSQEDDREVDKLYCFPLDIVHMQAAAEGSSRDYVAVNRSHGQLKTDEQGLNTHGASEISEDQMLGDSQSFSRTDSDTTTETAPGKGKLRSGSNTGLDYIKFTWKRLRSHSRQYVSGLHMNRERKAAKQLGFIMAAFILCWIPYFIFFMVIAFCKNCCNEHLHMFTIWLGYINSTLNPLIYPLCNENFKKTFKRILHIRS", "test": "Selectivity interaction (GPCR panel (PDSP screen)) EUB0000350a HRH1", "settings": "at 10 µM"}, "[8]": {"biological_target": "T2, Homeodomain-interacting protein kinase 4 (Homo sapiens) (UniProt Q8NE63)", "T2 sequence (whole entry)": "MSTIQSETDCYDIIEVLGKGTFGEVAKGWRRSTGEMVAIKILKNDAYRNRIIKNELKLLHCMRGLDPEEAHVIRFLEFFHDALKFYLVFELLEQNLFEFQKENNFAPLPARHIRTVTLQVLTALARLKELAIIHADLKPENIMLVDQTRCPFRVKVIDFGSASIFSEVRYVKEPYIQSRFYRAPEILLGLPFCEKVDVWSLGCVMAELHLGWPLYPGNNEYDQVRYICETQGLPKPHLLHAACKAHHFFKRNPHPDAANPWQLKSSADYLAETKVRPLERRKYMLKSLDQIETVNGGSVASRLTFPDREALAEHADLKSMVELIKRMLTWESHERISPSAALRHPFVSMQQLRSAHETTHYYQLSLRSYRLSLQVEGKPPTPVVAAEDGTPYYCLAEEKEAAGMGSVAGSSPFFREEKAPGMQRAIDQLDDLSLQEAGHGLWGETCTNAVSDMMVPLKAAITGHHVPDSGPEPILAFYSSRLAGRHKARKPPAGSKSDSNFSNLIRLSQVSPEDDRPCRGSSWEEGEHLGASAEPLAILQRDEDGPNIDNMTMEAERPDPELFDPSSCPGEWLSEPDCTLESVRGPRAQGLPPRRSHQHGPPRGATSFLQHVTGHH", "test": "Selectivity interaction (KinomeScan (DiscoverX)) EUB0000263b HIPK4", "settings": "at 1 µM"}, "[9]": {"biological_target": "T3, Mitogen-activated protein kinase 12 (Homo sapiens) (UniProt P53778)", "T3 sequence (whole entry)": "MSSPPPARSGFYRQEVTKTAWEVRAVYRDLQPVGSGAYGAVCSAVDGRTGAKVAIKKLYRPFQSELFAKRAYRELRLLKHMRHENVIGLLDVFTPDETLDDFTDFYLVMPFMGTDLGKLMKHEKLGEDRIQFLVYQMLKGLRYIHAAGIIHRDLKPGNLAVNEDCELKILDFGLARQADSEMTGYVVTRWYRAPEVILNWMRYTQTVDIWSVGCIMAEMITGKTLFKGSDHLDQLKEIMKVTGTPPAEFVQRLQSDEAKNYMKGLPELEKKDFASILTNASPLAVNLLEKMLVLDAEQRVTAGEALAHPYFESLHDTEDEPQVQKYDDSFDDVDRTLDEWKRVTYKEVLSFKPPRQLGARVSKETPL", "test": "Selectivity interaction (KinomeScan (DiscoverX)) EUB0000263b MAPK12", "settings": "at 1 µM"}, "[10]": {"biological_target": "Voltage-dependent L-type calcium channel subunit alpha-1S (Homo sapiens) (UniProt Q13698)", "sequence (Q13698 whole entry)": "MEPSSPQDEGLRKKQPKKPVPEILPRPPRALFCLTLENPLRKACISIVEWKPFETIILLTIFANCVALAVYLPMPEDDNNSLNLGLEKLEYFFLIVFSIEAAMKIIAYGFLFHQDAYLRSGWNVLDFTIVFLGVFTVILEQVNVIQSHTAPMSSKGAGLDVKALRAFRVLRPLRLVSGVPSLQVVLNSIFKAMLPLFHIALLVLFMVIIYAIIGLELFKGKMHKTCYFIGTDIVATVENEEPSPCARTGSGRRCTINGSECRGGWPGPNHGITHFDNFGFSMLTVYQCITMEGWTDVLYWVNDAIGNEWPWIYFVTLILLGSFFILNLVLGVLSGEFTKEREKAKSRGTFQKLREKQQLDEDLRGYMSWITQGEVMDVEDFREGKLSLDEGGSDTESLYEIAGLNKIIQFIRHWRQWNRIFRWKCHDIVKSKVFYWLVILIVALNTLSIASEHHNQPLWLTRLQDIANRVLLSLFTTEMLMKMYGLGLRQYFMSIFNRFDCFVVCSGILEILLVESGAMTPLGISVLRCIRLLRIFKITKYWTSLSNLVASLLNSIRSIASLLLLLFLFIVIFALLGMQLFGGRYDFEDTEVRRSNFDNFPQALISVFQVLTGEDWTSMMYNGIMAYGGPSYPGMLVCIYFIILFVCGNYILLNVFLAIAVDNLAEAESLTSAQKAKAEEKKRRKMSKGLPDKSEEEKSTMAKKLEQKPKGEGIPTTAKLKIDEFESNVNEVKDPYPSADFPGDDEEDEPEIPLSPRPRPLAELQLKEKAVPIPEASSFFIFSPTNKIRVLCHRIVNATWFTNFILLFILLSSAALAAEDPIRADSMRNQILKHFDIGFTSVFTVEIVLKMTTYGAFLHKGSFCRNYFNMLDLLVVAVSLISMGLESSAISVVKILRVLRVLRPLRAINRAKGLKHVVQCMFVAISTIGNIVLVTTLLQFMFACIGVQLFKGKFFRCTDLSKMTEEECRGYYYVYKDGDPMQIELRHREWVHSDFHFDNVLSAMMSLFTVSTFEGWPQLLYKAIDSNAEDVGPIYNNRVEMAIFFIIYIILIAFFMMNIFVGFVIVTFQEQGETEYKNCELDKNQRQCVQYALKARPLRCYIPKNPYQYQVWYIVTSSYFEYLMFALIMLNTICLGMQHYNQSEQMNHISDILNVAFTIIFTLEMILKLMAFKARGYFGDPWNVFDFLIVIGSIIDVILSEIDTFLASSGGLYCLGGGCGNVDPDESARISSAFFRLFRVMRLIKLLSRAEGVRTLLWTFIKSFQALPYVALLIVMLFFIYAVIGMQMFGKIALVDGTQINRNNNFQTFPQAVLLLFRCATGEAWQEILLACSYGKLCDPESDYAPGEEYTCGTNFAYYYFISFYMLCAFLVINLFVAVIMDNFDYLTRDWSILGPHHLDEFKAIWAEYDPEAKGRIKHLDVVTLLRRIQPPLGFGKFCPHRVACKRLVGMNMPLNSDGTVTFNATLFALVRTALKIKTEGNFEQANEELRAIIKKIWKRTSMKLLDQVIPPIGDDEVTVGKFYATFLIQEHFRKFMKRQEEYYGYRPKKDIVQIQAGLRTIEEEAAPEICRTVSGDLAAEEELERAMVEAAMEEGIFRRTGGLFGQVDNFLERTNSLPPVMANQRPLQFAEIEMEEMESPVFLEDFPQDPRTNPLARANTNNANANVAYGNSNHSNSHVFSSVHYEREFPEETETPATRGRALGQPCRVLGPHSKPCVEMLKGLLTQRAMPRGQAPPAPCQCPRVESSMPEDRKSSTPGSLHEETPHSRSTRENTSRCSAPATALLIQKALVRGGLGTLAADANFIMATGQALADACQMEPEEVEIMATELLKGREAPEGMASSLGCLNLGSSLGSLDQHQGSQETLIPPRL", "test": "Selectivity interaction (CEREP panel (Eurofins)) EUB0000263b CACNA1S", "settings": "at 10 µM"}, "[11]": {"biological_target": "Voltage-dependent L-type calcium channel subunit alpha-1S (Homo sapiens) (UniProt Q13698)", "test": "Selectivity interaction (Enzyme panel (Eurofins-Cerep)) EUB0000263b CACNA1S", "settings": "at 10 µM"}, "[12]": {"biological_target": "Dual specificity tyrosine-phosphorylation-regulated kinase 1B (Homo sapiens, UniProt Q9Y463)", "test": "Selectivity interaction (KinomeScan (DiscoverX)) EUB0000736a DYRK1B", "settings": "at 1 µM"}, "[13]": {"tested_on": "Tyrosine-protein kinase ABL1 (Homo sapiens), P00519 [M351T]", "test": "(§1) Selectivity interaction (KinomeScan (DiscoverX)) EUB0000736a ABL1", "settings": "at 1 µM"}, "[14]": {"tested_on": "Tyrosine-protein kinase ABL1 (Homo sapiens), P00519 [T315I]", "test": "as §1", "settings": "at 10 µM"}, "[15]": {"biological_target": "Ephrin type-A receptor 4 (Homo sapiens) (UniProt P54764)", "sequence (P54764 whole entry)": "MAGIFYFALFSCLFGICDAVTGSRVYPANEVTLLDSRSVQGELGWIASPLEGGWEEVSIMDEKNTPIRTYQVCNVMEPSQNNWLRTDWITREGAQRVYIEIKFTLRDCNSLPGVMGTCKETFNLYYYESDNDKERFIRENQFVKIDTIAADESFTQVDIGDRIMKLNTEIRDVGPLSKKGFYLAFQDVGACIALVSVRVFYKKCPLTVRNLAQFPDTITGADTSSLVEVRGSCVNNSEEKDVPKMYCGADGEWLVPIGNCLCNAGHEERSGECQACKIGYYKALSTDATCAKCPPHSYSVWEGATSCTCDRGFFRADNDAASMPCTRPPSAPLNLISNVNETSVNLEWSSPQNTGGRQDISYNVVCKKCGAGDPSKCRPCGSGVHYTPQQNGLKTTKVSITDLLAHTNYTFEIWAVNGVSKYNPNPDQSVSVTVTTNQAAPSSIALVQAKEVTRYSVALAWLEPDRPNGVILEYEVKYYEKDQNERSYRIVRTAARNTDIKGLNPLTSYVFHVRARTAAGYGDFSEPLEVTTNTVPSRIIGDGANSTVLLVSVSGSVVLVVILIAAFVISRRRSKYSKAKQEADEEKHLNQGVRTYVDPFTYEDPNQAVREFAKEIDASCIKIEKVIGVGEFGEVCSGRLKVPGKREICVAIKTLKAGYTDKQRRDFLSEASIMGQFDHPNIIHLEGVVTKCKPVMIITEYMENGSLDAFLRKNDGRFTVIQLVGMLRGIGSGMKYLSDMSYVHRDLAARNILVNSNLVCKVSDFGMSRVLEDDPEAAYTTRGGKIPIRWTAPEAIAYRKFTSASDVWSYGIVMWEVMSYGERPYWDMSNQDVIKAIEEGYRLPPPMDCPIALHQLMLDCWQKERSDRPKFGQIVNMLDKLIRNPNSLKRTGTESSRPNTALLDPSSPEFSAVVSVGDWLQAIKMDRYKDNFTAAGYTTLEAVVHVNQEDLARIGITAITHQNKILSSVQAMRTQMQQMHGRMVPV", "test": "Selectivity interaction (KinomeScan (DiscoverX)) EUB0000736a EPHA4", "settings": "at 1 µM"}, "[16]": {"biological_target": "Ephrin type-B receptor 3 (Homo sapiens) (UniProt P54753)", "test": "Selectivity interaction (KinomeScan (DiscoverX)) EUB0000736a EPHB3", "settings": "at 1 µM"}, "[17]": {"biological_target": "Ephrin type-A receptor 6 (Homo sapiens) (UniProt Q9UF33)", "sequence (Q9UF33 whole entry)": "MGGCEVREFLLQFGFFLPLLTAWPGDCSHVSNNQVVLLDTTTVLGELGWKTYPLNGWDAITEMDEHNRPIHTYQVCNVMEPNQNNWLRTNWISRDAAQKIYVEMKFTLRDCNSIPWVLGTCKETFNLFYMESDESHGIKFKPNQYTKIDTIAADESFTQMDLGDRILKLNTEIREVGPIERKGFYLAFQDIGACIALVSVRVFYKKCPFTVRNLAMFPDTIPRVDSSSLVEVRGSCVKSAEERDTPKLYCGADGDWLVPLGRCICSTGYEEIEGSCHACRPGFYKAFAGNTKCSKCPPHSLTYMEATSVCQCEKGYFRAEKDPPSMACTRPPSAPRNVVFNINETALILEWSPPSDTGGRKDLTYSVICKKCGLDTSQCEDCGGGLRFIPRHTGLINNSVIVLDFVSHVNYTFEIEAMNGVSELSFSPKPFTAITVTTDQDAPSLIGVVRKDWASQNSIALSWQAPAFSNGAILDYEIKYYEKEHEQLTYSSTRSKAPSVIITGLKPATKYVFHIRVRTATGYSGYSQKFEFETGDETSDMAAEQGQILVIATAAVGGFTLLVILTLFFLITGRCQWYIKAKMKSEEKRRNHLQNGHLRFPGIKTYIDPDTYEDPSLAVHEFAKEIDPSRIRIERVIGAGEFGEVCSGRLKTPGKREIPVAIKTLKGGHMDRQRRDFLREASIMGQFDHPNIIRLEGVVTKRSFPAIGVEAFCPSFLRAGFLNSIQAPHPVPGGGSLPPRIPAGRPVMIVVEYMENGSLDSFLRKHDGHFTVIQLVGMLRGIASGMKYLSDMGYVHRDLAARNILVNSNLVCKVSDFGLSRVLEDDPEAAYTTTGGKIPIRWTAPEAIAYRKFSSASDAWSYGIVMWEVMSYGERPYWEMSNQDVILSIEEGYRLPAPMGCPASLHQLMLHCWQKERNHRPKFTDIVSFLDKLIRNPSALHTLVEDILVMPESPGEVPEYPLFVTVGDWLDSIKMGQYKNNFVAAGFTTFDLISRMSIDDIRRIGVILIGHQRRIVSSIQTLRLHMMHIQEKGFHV", "test": "Selectivity interaction (KinomeScan (DiscoverX)) EUB0000736a EPHA6", "settings": "at 1 µM"}, "[18]": {"biological_target": "Maternal embryonic leucine zipper kinase (Homo sapiens) (UniProt Q14680)", "test": "Selectivity interaction (KinomeScan (DiscoverX)) EUB0000332a MELK", "settings": "at 1 µM"}, "[19]": {"biological_target": "SRSF protein kinase 2 (Homo sapiens) (UniProt P78362)", "test": "Selectivity interaction (KinomeScan (DiscoverX)) EUB0000332a SRPK2", "settings": "at 1 µM"}, "[20]": {"biological_target": "Megakaryocyte-associated tyrosine-protein kinase (Homo sapiens) (UniProt P42679)", "test": "Selectivity interaction (KinomeScan (DiscoverX)) EUB0000332a MATK", "settings": "at 1 µM"}, "[21]": {"biological_target": "T4, G protein-coupled receptor kinase 3 (Homo sapiens) (UniProt P35626)", "T4 sequence (whole entry)": "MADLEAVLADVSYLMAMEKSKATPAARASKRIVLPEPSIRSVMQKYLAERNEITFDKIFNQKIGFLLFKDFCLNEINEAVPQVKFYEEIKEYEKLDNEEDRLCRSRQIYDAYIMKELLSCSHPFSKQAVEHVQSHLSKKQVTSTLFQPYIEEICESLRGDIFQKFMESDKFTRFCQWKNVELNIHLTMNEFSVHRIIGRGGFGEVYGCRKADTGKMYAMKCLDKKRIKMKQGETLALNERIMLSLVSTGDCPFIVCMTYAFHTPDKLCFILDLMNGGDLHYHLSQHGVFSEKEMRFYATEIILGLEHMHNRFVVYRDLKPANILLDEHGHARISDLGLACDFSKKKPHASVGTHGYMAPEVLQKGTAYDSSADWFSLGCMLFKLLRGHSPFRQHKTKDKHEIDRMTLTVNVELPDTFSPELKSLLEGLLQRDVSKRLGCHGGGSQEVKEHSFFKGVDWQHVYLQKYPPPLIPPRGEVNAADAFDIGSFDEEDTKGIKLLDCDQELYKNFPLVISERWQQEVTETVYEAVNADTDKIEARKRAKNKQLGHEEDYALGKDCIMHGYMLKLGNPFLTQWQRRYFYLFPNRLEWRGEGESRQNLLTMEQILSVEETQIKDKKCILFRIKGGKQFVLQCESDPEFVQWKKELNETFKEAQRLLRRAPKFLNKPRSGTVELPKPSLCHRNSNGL", "test": "Selectivity interaction (KinomeScan (DiscoverX)) EUB0000332a ADRBK2", "settings": "at 1 µM"}}}
{"smiles": "CCCOc1ccc([C@@H]2[C@@H](C(=O)O)[C@H](c3ccc4c(c3)OCO4)CN2CC(=O)Nc2c(CC)cccc2CC)cc1", "values": [{"measurement": "% of control", "setting": "[1]", "value": 55, "unit": "%"}, {"measurement": "% of control", "setting": "[2]", "value": 52, "unit": "%"}, {"measurement": "% of control", "setting": "[3]", "value": 55, "unit": "%"}]}
{"smiles": "COc1ccc(Oc2cc(NCCC(F)(F)F)c3ncc(-c4ccc(C(=O)NC5CC5)c(C)c4)n3n2)c(F)c1F", "values": [{"measurement": "% of control", "setting": "[4]", "value": 4, "unit": "%"}, {"measurement": "% of control", "setting": "[5]", "value": 2, "unit": "%"}, {"measurement": "% of control", "setting": "[6]", "value": 0, "unit": "%"}]}
{"smiles": "CCCOc1ccc([C@H]2[C@H](C(=O)O)[C@@H](c3ccc4c(c3)OCO4)CN2CC(=O)Nc2c(CC)cccc2CC)cc1", "values": [{"measurement": "% of inhibition", "setting": "[7]", "value": 36, "unit": "%"}]}
{"smiles": "CO[C@H]1CC[C@H](CNc2ccc(S(=O)(=O)NC(=O)c3ccc(N4CCN(CC5=C(c6ccc(Cl)cc6)CC(C)(C)CC5)CC4)cc3Oc3cnc4[nH]ccc4c3)cc2[N+](=O)[O-])CC1", "values": [{"measurement": "% of control", "setting": "[8]", "value": 4.4, "unit": "%"}, {"measurement": "% of control", "setting": "[9]", "value": 47, "unit": "%"}, {"measurement": "% of inhibition", "setting": "[10]", "value": 63.2, "unit": "%"}, {"measurement": "% of inhibition", "setting": "[11]", "value": 63.2, "unit": "%"}]}
{"smiles": "Cn1cncc1[C@@](O)(COc1ccc(C#N)cc1-c1ccc(OC(F)(F)F)cc1)c1ccc(C#N)cc1", "values": [{"measurement": "% of control", "setting": "[12]", "value": 38, "unit": "%"}, {"measurement": "% of control", "setting": "[13]", "value": 6.2, "unit": "%"}, {"measurement": "% of control", "setting": "[14]", "value": 6.1, "unit": "%"}, {"measurement": "% of control", "setting": "[15]", "value": 12, "unit": "%"}, {"measurement": "% of control", "setting": "[16]", "value": 6, "unit": "%"}, {"measurement": "% of control", "setting": "[17]", "value": 3, "unit": "%"}]}
{"smiles": "CSc1cccnc1N1CCN(Cc2nc3ccccc3[nH]2)CC1", "values": [{"measurement": "% of control", "setting": "[18]", "value": 46, "unit": "%"}, {"measurement": "% of control", "setting": "[19]", "value": 59, "unit": "%"}, {"measurement": "% of control", "setting": "[20]", "value": 45, "unit": "%"}, {"measurement": "% of control", "setting": "[21]", "value": 31, "unit": "%"}]}
